One may read the EC50 as the midpoint of the concentration-response curve.

Each structure is given as a SMILES string. Active and inactive are the calls of the source.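 How the source made its calls: active means mean EC50 below 100 µM; inactive means the rest.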 Bounds are passed on as bounds.

Sequence of Intestinal-type alkaline phosphatase (Homo sapiens) (P09923 whole entry, looked up): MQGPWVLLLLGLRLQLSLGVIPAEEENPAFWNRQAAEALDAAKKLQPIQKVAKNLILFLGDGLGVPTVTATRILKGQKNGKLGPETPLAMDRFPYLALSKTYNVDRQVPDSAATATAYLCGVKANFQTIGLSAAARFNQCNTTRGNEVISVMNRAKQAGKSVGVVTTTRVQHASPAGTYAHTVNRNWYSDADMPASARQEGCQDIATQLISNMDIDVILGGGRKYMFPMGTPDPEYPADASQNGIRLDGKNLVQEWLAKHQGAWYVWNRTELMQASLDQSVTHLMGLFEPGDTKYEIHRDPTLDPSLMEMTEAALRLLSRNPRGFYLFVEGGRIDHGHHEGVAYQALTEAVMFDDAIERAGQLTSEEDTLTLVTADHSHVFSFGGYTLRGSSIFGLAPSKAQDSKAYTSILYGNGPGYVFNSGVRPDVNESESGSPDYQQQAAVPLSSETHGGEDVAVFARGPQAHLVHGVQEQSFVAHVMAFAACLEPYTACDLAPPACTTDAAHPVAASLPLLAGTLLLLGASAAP

The assay concerns the target Intestinal-type alkaline phosphatase (Homo sapiens) (UniProt P09923). Description: human IAP enzyme activators, SAR follow-up, selectivity assay for mouse IAP activator project, biochemical, luminescence, set 2 (AID 588611). The following applies: purified human IAP, CDP-Star luminescence, 30 min.
As for `CN(C)S(=O)(=O)c1ccc(NC(=S)NCc2ccc(Cl)cc2)cc1`, the EC50 was > 100 µM (inactive).
With `CN(C)CCCNC(=S)Nc1cccc(S(=O)(=O)N(C)C)c1`, the EC50 was > 100 µM (inactive).
With `COc1cccc(CCNC(=S)Nc2cccc(S(=O)(=O)N(C)C)c2)c1`, the concentration giving a half-maximal response (EC50) was 82 µM.
On to `CN(C)S(=O)(=O)c1cccc(NC(=S)NCCC(c2ccccc2)c2ccccc2)c1`, for which the EC50 was > 100 µM (inactive).
`CN(C)S(=O)(=O)c1ccc(NC(=S)NC(c2ccccc2)c2ccccc2)cc1`: the EC50 was 62.4 µM.
Regarding `O=C(NC(=S)Nc1cc(S(=O)(=O)N2CCOCC2)ccc1N1CCOCC1)c1ccco1`, the EC50 is > 100 µM (inactive).
With `CN(C)S(=O)(=O)c1ccc(NC(=S)NCCc2ccccc2)cc1`, the EC50 is > 100 µM (inactive).
For the molecule `O=S(=O)(c1ccc(NC(=S)NCCC(c2ccccc2)c2ccccc2)cc1)N1CCCCC1`, the EC50 is 53 µM.
For the molecule `CN(C)S(=O)(=O)c1cccc(NC(=S)NCCCN2CCCC2=O)c1`, the EC50 is > 100 µM (inactive).
Regarding `CN(C)S(=O)(=O)c1ccc(NC(=S)NCCN2CCCC2)cc1`, the EC50 was > 100 µM (inactive).
For `CN(C)CC(C)(C)CNC(=S)Nc1cccc(S(=O)(=O)N(C)C)c1` the value was > 100 µM (inactive); for `COc1cccc(CNC(=S)Nc2ccc(S(=O)(=O)N(C)C)cc2)c1`, > 100 µM (inactive).
For `COc1ccccc1CNC(=S)Nc1ccc(S(=O)(=O)N(C)C)cc1` the value was > 100 µM (inactive); for `O=S(=O)(c1ccc(NC(=S)NCC(c2ccccc2)c2ccccc2)cc1)N1CCCC1`, 58.5 µM; for `O=S(=O)(c1ccc(NC(=S)NC(c2ccccc2)c2ccccc2)cc1)N1CCCC1`, 58.2 µM.
As to `CC(CCc1ccccc1)NC(=S)Nc1cccc(S(=O)(=O)N(C)C)c1` (centres undefined), the concentration for a half-maximal effect (EC50) was 69.4 µM.
As to `CN(C)S(=O)(=O)c1cccc(NC(=S)NCCc2cccc(F)c2)c1`, the EC50 was > 100 µM (inactive).
With `Cc1ccc(CNC(=S)Nc2ccc(S(=O)(=O)N(C)C)cc2)cc1`, the EC50 is 89.6 µM.
Consider `O=C(NC(=S)Nc1cc(S(=O)(=O)N2CCOCC2)ccc1O)c1ccco1`, for which the EC50 was > 100 µM (inactive).
With `CN(C)S(=O)(=O)c1cccc(NC(=S)NCC(c2ccccc2)c2ccccc2)c1`, the EC50 is 39.4 µM.
Regarding `Cc1ccc(S(=O)(=O)N(C)C)cc1NC(=S)NC1CCN(Cc2ccccc2)CC1`, the EC50 is > 100 µM (inactive).
Then `O=S(=O)(c1ccc(NC(=S)NCC(c2ccccc2)c2ccccc2)cc1)N1CCCCC1`, with 72.1 µM; and `Cc1ccc(S(=O)(=O)N(C)C)cc1NC(=S)NC(C)CCCC(C)C` (centres undefined), with 58 µM; and `Cc1ccc(S(=O)(=O)N(C)C)cc1NC(=S)NC(C)CCC(C)C` (centres undefined), with 66.6 µM.
Turning to `CN(C)S(=O)(=O)c1cccc(NC(=S)NCCc2ccc(F)cc2)c1`, the EC50 is > 100 µM (inactive).
Turning to `CN(C)S(=O)(=O)c1ccc(NC(=S)NCCC(c2ccccc2)c2ccccc2)cc1`, the EC50 was 57.2 µM.
`CC1CC(NC(=S)Nc2cccc(S(=O)(=O)N(C)C)c2)CC(C)N1` (centres undefined): the EC50 is > 100 µM (inactive).
Turning to `CCN(CC)S(=O)(=O)c1ccc(NC(=S)NC(c2ccccc2)c2ccccc2)cc1`, the EC50 was 63.7 µM.
Regarding `CN(CCc1ccccc1)C(=S)Nc1cccc(S(=O)(=O)N(C)C)c1`, the EC50 was > 100 µM (inactive).
As to `CC(CNC(=S)Nc1cccc(S(=O)(=O)N(C)C)c1)N1CCN(c2ccccc2)CC1` (centres undefined), the EC50 was > 100 µM (inactive).
`O=S(=O)(c1ccc(NC(=S)NCCC(c2ccccc2)c2ccccc2)cc1)N1CCCC1`: the EC50 is 62.2 µM.
For `CN(C)S(=O)(=O)c1ccc(NC(=S)NCCc2cccc(Br)c2)cc1` the value was 73.7 µM; for `O=c1c2ccccc2[nH]c(=S)n1-c1cccc(S(=O)(=O)N2CCCC2)c1`, > 100 µM (inactive); for `CN(C)S(=O)(=O)c1cccc(NC(=S)NCCC(=O)N2CCCC2)c1`, > 100 µM (inactive).
Then `CN(C)S(=O)(=O)c1cccc(NC(=S)NCCN2CCCC2)c1`, with > 100 µM (inactive); and `CN(C)S(=O)(=O)c1cccc(NC(=S)NCCCn2ccnc2)c1`, with > 100 µM (inactive); and `CN(C)S(=O)(=O)c1cccc(NC(=S)NCc2ccc(Cl)cc2)c1`, with 75.5 µM.
For `Cc1ccc(CNC(=S)Nc2cccc(S(=O)(=O)N(C)C)c2)cc1` the value was > 100 µM (inactive).
For `CCN(CC)CCCNC(=S)Nc1cccc(S(=O)(=O)N(C)C)c1`, the EC50 was > 100 µM (inactive).
`COc1ccc(CCNC(=S)Nc2ccc(S(=O)(=O)N3CCCCC3)cc2)cc1OC`: the EC50 is > 100 µM (inactive).
Consider `CN(C)S(=O)(=O)c1cccc(NC(=S)NCCc2ccc(Br)cc2)c1`, for which the half-maximal effective concentration (EC50) was 84.5 µM.
For the molecule `CN(CCc1ccccn1)C(=S)Nc1cccc(S(=O)(=O)N(C)C)c1`, the EC50 was > 100 µM (inactive).
With `CCN(CC)S(=O)(=O)c1ccc(NC(=S)NCCC(c2ccccc2)c2ccccc2)cc1`, the EC50 was 41.3 µM.
Consider `CN(C)S(=O)(=O)c1cccc(NC(=S)NCCc2cccc(O)c2)c1`, for which the EC50 was > 100 µM (inactive).
Take `Cc1ccccc1CNC(=S)Nc1ccc(S(=O)(=O)N(C)C)cc1`: the EC50 is > 100 µM (inactive).
As to `CCOc1cc(CCNC(=S)Nc2ccc(S(=O)(=O)N(C)C)cc2)ccc1OC`, the EC50 is > 100 µM (inactive).
Consider `CN(C)S(=O)(=O)c1cccc(NC(=S)NCCc2cccc(Br)c2)c1`, for which the 50% effective concentration (EC50) is 65 µM.
Then `O=C(CCc1ccccc1)NC(=S)Nc1cccc(S(=O)(=O)N2CCCC2)c1`, with > 100 µM (inactive); and `COc1ccc(CCNC(=S)Nc2ccc(S(=O)(=O)N3CCCCC3)cc2)cc1`, with 77.2 µM; and `COc1ccc(CNC(=S)Nc2ccc(S(=O)(=O)N3CCCCC3)cc2)cc1OC`, with > 100 µM (inactive).
For `CN(C)S(=O)(=O)c1cccc(NC(=S)NC(c2ccccc2)c2ccccc2)c1`, the concentration giving a half-maximal response (EC50) is 34 µM.
For `Cc1ccc(S(=O)(=O)N(C)C)cc1NC(=S)NCCCn1ccnc1` the value was > 100 µM (inactive); for `CCN(CC)c1ccc(C(=O)NC(=S)Nc2cc(S(=O)(=O)N3CCOCC3)ccc2-n2cncn2)cc1`, > 100 µM (inactive).
Then `CN(C)S(=O)(=O)c1cccc(NC(=S)NCCc2ccccc2)c1`, with > 100 µM (inactive); and `CN(C)S(=O)(=O)c1cccc(NC(=S)NC(C)(C)CC(C)(C)C)c1`, with 70.7 µM; and `Cc1ccc(S(=O)(=O)N(C)C)cc1NC(=S)NC(=O)C12CC3CC(CC(C3)C1)C2`, with > 100 µM (inactive).
For the molecule `CCN(CC)S(=O)(=O)c1ccc(NC(=S)NCC(c2ccccc2)c2ccccc2)cc1`, the EC50 was 55.5 µM.
For `O=S(=O)(c1ccc(NC(=S)NCc2cccc(F)c2)cc1)N1CCCCC1`, the 50% effective concentration (EC50) is 76.8 µM.
Regarding `CN(C)S(=O)(=O)c1ccc(NC(=S)NCCc2cccc(O)c2)cc1`, the EC50 was > 100 µM (inactive).
With `CC1CCN(S(=O)(=O)c2ccc(NC(=S)NCC(c3ccccc3)c3ccccc3)cc2)CC1`, the EC50 is > 100 µM (inactive).
For `CC1CCN(S(=O)(=O)c2ccc(NC(=S)NC(c3ccccc3)c3ccccc3)cc2)CC1`, the EC50 is > 100 µM (inactive).
On to `O=S(=O)(c1ccc(NC(=S)NC(c2ccccc2)c2ccccc2)cc1)N1CCCCC1`, for which the EC50 is 68.7 µM.
For the molecule `CC1CCN(S(=O)(=O)c2ccc(NC(=S)NCCC(c3ccccc3)c3ccccc3)cc2)CC1`, the half-maximal effective concentration (EC50) is 53.1 µM.
Take `Cc1ccc(C)c(NC(=S)Nc2ccc(S(=O)(=O)N3CCCCC3)cc2)c1`: the EC50 is > 100 µM (inactive).

These data come from PubChem BioAssay AID588611 (Sanford-Burnham Center for Chemical Genomics, 2011).
